This is an account of results in patent US20060194814A1, “Benzamide compounds” (priority 2003, published 2006).

Counter-ions that a name gives are not always drawn.

The subject of assay [1] is PKA. Put plainly: dbcAMP-stimulated PKA activity (PepTag assay) in Y1 cells. On the set-up: dose or concentration left out as unconfirmed. Type of assay: cell-based, mouse. On the procedure: Y1 cells were cultured in 6-well plates (2×10^5 cells per well) and treated as described above for steroid biosynthesis. At the end of the incubation, cells were washed twice with PBS and proteins were extracted using an extraction buffer (25 mM tris-HCl, pH 7.4, 0.5 mM EDTA, 0.5 mM EGTA, 10 mM -mercaptoethanol, 0.5 mM PMSF, 1 g/ml leupeptin, and 1 g/ml aprotinin). After centrifugation at 18,500 g for 15 minutes, the supernatants were kept for PKA activity assay. Samples were processed using the PepTag assay for non-radioactive detection of PKA activity following the manufacturer's recommendations (Promega Corporation, Madison, Wis.).

Assay [2] relates to P-450scc enzyme. The experiment in a line: Immunoblot of P-450scc expression in Y1 cells. In kind it is cell-based, mouse. To be noted: immunoblot of cell extracts. On the procedure: At the end of the treatment protocol described above, Y1 cells at 90% confluency were washed 2 times with PBS, sonicated 15 seconds in extraction buffer and centrifuged at 18,500 g for 15 minutes at 4° C. Pellets were resuspended in ice-cold lysis buffer (1% Nonidet 40 in extraction buffer), sonicated briefly, and incubated on ice for 1 hour. After centrifugation (22,500 g×30 min, 4° C.), the supernatant was mixed in sample buffer 6× (0.27 M SDS, 0.6 M dithiothreitol, 0.18 M bromphenol blue in 7 ml of 0.5 M Tris-HCl, pH 6.8, and 3 ml glycerol) and boiled for 5 minutes. Proteins were subjected to SDS-PAGE (4-20% gradient SDS polyacrylamide gel) and electrophoretically transferred onto nitrocellulose membranes. The transblot sheets were blocked with 5% non fat dry milk in 25 mM Tris HCl, pH 7.5, 150 mM NaCl, and 0.1% Tween 20 overnight at 4° C. Membranes were then incubated with appropriately diluted primary antibodies 1:800 for anti-P-450scc (Research Diagnostics Inc. Flanders, N.J.) and 1:200 for anti-StAR (Amri et al., 1996), and the reaction was detected by a peroxidase-conjugated secondary antibody (Santa Cruz Biotechnology, Santa Cruz, Calif.) and enhanced chemiluminescence (Amersham Life, Arlington Heights, Ill.). The densities of the appropriate bands were determined using the OptiQuant Acquisition & Analysis software (Packard BioScience).

Assay [3] deals with T1, HMG-CoA reductase (Mus musculus, UniProt Q01237).
T1 construct: endogenous in cells; host or cells: Y1 mouse adrenal tumor cells
T1 sequence (Q01237 1-887): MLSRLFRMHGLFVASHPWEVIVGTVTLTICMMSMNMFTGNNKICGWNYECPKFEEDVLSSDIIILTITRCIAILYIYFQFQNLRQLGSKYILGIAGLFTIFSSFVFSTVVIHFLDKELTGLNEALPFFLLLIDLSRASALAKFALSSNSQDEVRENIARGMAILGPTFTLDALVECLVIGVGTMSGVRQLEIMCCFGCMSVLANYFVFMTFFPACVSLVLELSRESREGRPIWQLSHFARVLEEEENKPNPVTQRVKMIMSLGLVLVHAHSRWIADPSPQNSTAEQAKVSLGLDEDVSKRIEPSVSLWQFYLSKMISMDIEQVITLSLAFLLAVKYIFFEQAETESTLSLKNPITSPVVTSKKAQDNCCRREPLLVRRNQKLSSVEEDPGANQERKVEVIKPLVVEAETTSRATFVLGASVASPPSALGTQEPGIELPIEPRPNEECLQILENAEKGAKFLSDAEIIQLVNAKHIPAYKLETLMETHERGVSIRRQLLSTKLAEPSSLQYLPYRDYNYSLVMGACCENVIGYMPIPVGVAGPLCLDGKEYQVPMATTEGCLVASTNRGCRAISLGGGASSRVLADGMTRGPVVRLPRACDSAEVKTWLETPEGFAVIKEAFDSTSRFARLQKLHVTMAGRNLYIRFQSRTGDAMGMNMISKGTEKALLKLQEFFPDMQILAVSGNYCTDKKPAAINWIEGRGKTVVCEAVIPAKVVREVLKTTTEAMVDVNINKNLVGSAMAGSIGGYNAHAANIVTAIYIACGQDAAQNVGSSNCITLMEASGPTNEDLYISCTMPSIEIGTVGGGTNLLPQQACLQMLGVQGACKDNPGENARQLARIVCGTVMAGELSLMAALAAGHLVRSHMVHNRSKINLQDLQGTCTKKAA
Put plainly: Direct effect on HMG-CoA reductase activity in sonicated Y1 cell homogenates. In kind it is biochemical. The settings on record: sonicated Y1 cells. On the procedure: Cells were washed twice with ice-cold PBS and incubated with ice-cold assay buffer (0.1M sucrose, 40 mM KH2PO4, 30 mM EDTA, 50 mM KCl, 5 mM DTT, 0.25% (v/v) of Brij 96, at pH 7.4) on ice for 20 minutes. After centrifugation for 3 minutes at 14000 g (4° C.) the supernatants were collected and used for HMG-CoA reductase activity assay. The total 150 l assay mixture contained 100-200 g protein and the NADPH-generating system (2.5 mM NADP, 20 mM glucose 6-phosphate and 20 U/ml glucose 6-phosphate dehydrogenase). The reaction was started by adding substrate (^14C-HMG-CoA, 0.1 Ci) and stopped after 45 minutes by adding 10-1 of HCl 6M. ^3H-mevalonolactone was also added to the samples as an extraction recovery marker. After an additional 30 minutes incubation time, to allow complete lactonization of the product, the mixture was centrifuged. The supernatant was applied to Bond-Elut NH2 column and eluted with 1 ml of toluene/acetone (3:1). The eluate was discarded and further 4 ml of toluene/acetone was applied to the column and collected in a scintillation vial for counting ^14C-mevalonate and ^3H-mevalonolactone signals (Berkhout et al., 1990).
In separate experiments cells were disrupted by sonication and then treated with procaine. The direct effect of the treatment on HMG-CoA reductase activity in the homogenates was determined as described above.

Consider `CCN(CC)CCOC(=O)c1ccc(N)cc1` [SP01, procaine HCl], for which, in assay [1], the “effect on dbcAMP-stimulated PKA activity” value is given as “no significant effect”. The “effect on expression of the P-450scc enzyme” value in assay [2] is “did not modify”. Also, in assay [3], the “direct effect on HMG-CoA reductase activity” value is “No direct effect”. For the same compound, the HMG-CoA reductase activity in assay [3] (1 μM procaine) was determined as 9.9±0.01 pmol/min/mg protein; in assay [3] (10 μM procaine) it was 10.3±0.6 pmol/min/mg protein; in assay [3] (100 μM procaine), 10.1±0.1 pmol/min/mg protein.
